Assay results taken from patent publication US20250195542A1, “METABOLIC DISEASE THERAPEUTIC AGENT OR PREVENTIVE AGENT” (Peking University, priority 2022, published 2025).

How the values were obtained:
[1] = system: FGF21; experiment: Serum FGF21 protein in MCD mice (ELISA); assay type: in vivo, C57BL/6J mice; conditions: oral 4 weeks, Antcin K 20 mg/kg, Antcin C 20 and 40 mg/kg, AK-GLU 26.6 mg/kg, compared to DEA, FIG. 10
Experimental: The modeling and treatment of MCD mice were conducted as described in Example 4. The treated groups were compared with untreated MCD mice (“MCD”) and normal mice (“Nor”). The dosages for each treatment group were as follows: positive control obeticholic acid (“OCA”): 10 mg/kg; Antcin K (“AK”): 20 mg/kg; low-dose Antcin C (“AC-L”): 20 mg/kg; high-dose Antcin C (“AC-H”): 40 mg/kg; DEA: 20 mg/kg; AK-GLU: 26.6 mg/kg.
The serum sampling method from mice was the same as in Example 6. The FGF21 levels were tested using an ELISA kit (Beyotime), with the following procedure: The microplate was equilibrated at room temperature for 20 minutes. Then, 50 μL of serum samples or different concentrations of standards were added to each well. Next, 100 μL of HRP-conjugated detection antibody was added, and the plate was covered with a sealing film and incubated at 37° C. for 60 minutes. The liquid was discarded, and the plate was dried with absorbent paper. Each well was then washed with 350 μL of washing buffer, left for 1 minute, and the liquid was discarded and dried with absorbent paper. This washing step was repeated 5 times. Then, 50 μL of Substrate A and 50 μL of Substrate B were added to each well and incubated at 37° C. in the dark for 15 minutes. After that, 50 μL of stop solution was added to each well, and the absorbance at 450 nm was measured within 15 minutes. A standard curve was plotted with the absorbance of the standards on the vertical axis and the standard concentrations on the horizontal axis. The serum sample absorbance values were used to determine the FGF21 protein concentrations based on this standard curve.

[2] = system: non-alcoholic steatohepatitis (NASH) in MCD mice; experiment: Pathological (H&E) staining of liver sections from MCD mice, Example 6; assay type: in vivo, C57BL/6J mice; conditions: oral 4 weeks, Antcin K 20 mg/kg, Antcin C 20 and 40 mg/kg, AK-GLU 26.6 mg/kg, better than obeticholic acid and DEA, FIG. 9
Experimental: (§1) The MCD mouse model and drug administration method were the same as in Example 4. After the final treatment, the mice were sacrificed, and the liver tissue samples were fixed overnight in 4% paraformaldehyde, embedded in paraffin, and sectioned. The sections were stained with hematoxylin and eosin (H&E) according to the following procedure: immerse the sections in the following solutions sequentially: xylene (I) for 15 minutes, xylene (II) for 15 minutes, 50% xylene-absolute ethanol for 2 minutes, absolute ethanol (I) for 5 minutes, absolute ethanol (II) for 5 minutes, 80% ethanol for 5 minutes, distilled water for 5 minutes, hematoxylin staining solution for 5 minutes, rinse with running water for 5 minutes, 1% hydrochloric acid ethanol for 30 seconds, rinse with water for 30 seconds, wash with distilled water for 5 seconds, 0.5% eosin staining solution for 2 minutes, rinse with distilled water for 30 seconds, 80% ethanol for 30 seconds, 95% ethanol (I) for 1 minute, 95% ethanol (II) for 1 minute, absolute ethanol (I) for 3 minutes, absolute ethanol (II) for 3 minutes, xylene (I) for 3 minutes, xylene (II) for 3 minutes, and mount with neutral resin.
(§2) The treated groups were compared with untreated MCD mice (“MCD”) and normal mice (“Nor”). The drug administration doses were as follows: positive control obeticholic acid (OCA): 10 mg/kg; Antcin K (AK): 20 mg/kg; low-dose Antcin C (AC-L): 20 mg/kg; high-dose Antcin C (AC-H): 40 mg/kg; DEA: 20 mg/kg; AK-GLU: 26.6 mg/kg.

[3] = system: FGF21; experiment: FGF21 protein expression in the liver of MCD mice (Western blot); assay type: in vivo, C57BL/6J mice; conditions: oral 4 weeks, Antcin K 20 mg/kg, Antcin C 20 and 40 mg/kg, compared to DEA 20 mg/kg, FIG. 7
Experimental: The modeling and procedures for MCD mice are as described in Example 4. Comparisons were made between the treated groups and untreated MCD mice (“MCD”) and normal mice (“Normal”). The dosing for each treatment group was as follows: positive drug obeticholic acid (“OCA”): 10 mg/kg; Antcin K (“AK”): 20 mg/kg; low-dose Antcin C (“AC-L”): 20 mg/kg; high-dose Antcin C (“AC-H”): 40 mg/kg; DEA: 20 mg/kg.
Liver tissue (15-20 mg) was homogenized in RIPA lysis buffer on ice, and then centrifuged at 13,000 rpm for 30 minutes at 4° C. The middle layer liquid was transferred to a new centrifuge tube and the protein concentration was measured using BCA method. For each sample, 20 μg of protein was separated by SDS-PAGE and then transferred to a PDVF membrane using Bio-Rad's standard wet transfer system at 200 mA for 60 minutes. Subsequently, the membrane was cut according to protein molecular weight and blocked with 0.5% BSA at room temperature for 60 minutes. The primary antibody was incubated at 4° C. for 14 hours, followed by washing with TBST at room temperature 3 times for 5 minutes each. The secondary antibody was incubated at room temperature for 1 hour, followed by washing with TBST at room temperature 3 times for 10 minutes each. ECL reagent was used for detection.

[4] = system: non-alcoholic steatohepatitis (NASH) in MCD mice; experiment: Serum ALT in MCD mice (NASH model), Example 6; assay type: in vivo, C57BL/6J mice; conditions: oral 4 weeks, Antcin K 20 mg/kg, Antcin C 20 and 40 mg/kg, AK-GLU 26.6 mg/kg, better than obeticholic acid 10 mg/kg and DEA 20 mg/kg, FIG. 8
Experimental: as §1, §2
After the final treatment, the mice were fasted overnight, sacrificed, and blood was collected from the eye vein. The whole blood was allowed to stand for 2 hours, centrifuged at 6000 rpm for 10 minutes, and the serum was obtained.

[5] = biological target: T1, RDH10 (Mus musculus, UniProt Q8VCH7); experiment: Protein fishing (pull-down) with molecular probe and proteomics analysis; assay type: binding, C57BL/6J mice
T1 construct: Take approximately 50 mg of liver tissue from C57BL/6J mice and add 1 mL of RIPA lysis buffer; from tissue; host or cells: mouse liver (C57BL/6J) lysate
T1 sequence (Q8VCH7 1-341): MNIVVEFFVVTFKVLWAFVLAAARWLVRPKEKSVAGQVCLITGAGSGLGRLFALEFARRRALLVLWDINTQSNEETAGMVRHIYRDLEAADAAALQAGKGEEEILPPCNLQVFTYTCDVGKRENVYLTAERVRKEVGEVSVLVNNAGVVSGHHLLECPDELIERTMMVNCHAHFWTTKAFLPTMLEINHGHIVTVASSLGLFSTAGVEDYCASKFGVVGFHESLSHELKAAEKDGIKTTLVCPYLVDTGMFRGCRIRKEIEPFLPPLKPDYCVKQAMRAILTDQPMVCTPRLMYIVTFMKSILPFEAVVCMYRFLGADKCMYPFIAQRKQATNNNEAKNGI
Experimental: • 1. Preparation of Liver Protein: Take approximately 50 mg of liver tissue from C57BL/6J mice and add 1 mL of RIPA lysis buffer. Lyse the proteins on ice, then centrifuge at 12,000 rpm for 30 minutes at 4° C. Collect the supernatant, measure the protein concentration using BCA method, and dilute to 1 mg/mL with PBS. • 2. Sample Preparation: Prepare new 1.5 mL EP tubes and divide them into control group, drug group, and competitive inhibition group. Add 100 μL of PBS solution containing 40 μM Biotin to the control group, 100 μL of PBS solution containing 40 μM ACS-biotin (prepared in Example 1) to the drug group, and 100 μL of PBS solution containing 40 μM ACS-biotin and 400 μM ACS to the competitive inhibition group. Then, add 100 μL of liver protein lysate (1 mg/mL) to each tube and incubate on a shaking incubator at 4° C. for 2 hours. • 3. Washing Streptavidin Beads: Add 100 μL of streptavidin beads to new 1.5 mL EP tubes and centrifuge at 2,700 rpm for 1 minute. Discard the supernatant and wash the beads with 100 μL of PBS three times. • 4. Binding and Washing: Add the solutions from step 2 to the washed streptavidin beads. Incubate on a shaking incubator at 4° C. for 2 hours, then centrifuge at 2,700 rpm for 1 minute. Discard the supernatant and wash the beads with 100 μL of PBS three times. • 5. Protein Elution: Add 50 μL of PBS to the beads, mix well, and then add 5×SDS-PAGE sample buffer. Boil for 5 minutes and centrifuge at 13,000 rpm for 5 minutes. Store the supernatant at −20° C. for SDS-PAGE gel electrophoresis. • 6. Protein Detection: Stain with Coomassie Brilliant Blue and cut the gel for proteomics analysis.

[6] = system: non-alcoholic steatohepatitis; conditions: reported; cited from earlier work
[7] = system: FGF21; experiment: FGF21 gene expression in the liver of MCD mice (qPCR); assay type: in vivo, C57BL/6J mice; conditions: oral 4 weeks, Antcin C 20 and 40 mg/kg, AK-GLU 26.6 mg/kg, compared to DEA 20 mg/kg, FIG. 6
Experimental: Four-week-old male C57BL/6J mice were purchased from the Experimental Animal Center, Peking University Health Science Center. The mice were randomly divided into groups, with 10 mice per group. Methionine choline-deficient diet (MCD) was used to induce non-alcoholic steatohepatitis (NASH), forming the MCD model mice. The model mice were treated with an oral administration of drugs for 4 weeks. After the final treatment, the mice were fasted overnight, and then sacrificed. Serum and liver tissues were stored at −80° C., which could be compared with untreated MCD mice (“MCD”) and normal mice (“Nor” or “Normal”). The dosing amounts for each group were as follows: low-dose Antcin C (“AC-L”): 20 mg/kg; high-dose Antcin C (“AC-H”): 40 mg/kg; DEA: 20 mg/kg; AK-GLU: 26.6 mg/kg.
Total RNA Extraction: Liver tissue samples from the mice (10-20 mg) were cut into pieces and added to 1 ml of Tranzol. The mixture was placed on ice and homogenized, then transferred to an RNase-free and DNase-free EP tube. To each tube, 0.2 ml of chloroform was added, and the mixture was vigorously shaken for 15 seconds. After incubation at low temperature for 3 minutes, the mixture was centrifuged at 12000 rpm for 15 minutes at 4° C. The aqueous upper phase was transferred to a new EP tube, and an equal volume of isopropanol was added. […] RNA concentration was measured using a spectrophotometer with an A260/280 ratio. […]

| Compound | serum FGF21 protein levels [1] | steatosis and ballooning in the liver [2] | FGF21 protein expression levels in liver [3] | serum ALT levels [4] | log2 (ACS-biotin/ACS-biotin+ACS) for RDH10 protein ([5]; 40 μM ACS-biotin vs 40 μM ACS-biotin + 400 μM ACS, FIG. 14C) | log2 (ACS-biotin/Biotin) for RDH10 ([5]; 40 μM ACS-biotin vs 40 μM Biotin, mouse liver protein lysate, FIG. 14B) | effect in preventing and treating non-alcoholic steatohepatitis [6] | gene expression levels of FGF21 in vivo [7] |
| --- | --- | --- | --- | --- | --- | --- | --- | --- |
| C=C(CC[C@@H](C)[C@H]1CC[C@H]2C3=C(C(=O)C[C@]12C)[C@@]1(C)CC[C@@H](O)[C@](C)(O)[C@@H]1C[C@@H]3O)C(C)C(=O)O (stereo partly shown) [Antcin K] | significantly upregulated | significantly reduced | significantly upregulated | significantly reduced | – | – | – | – |
| 25S-Antcin C—CO—NH-PEG2-biotin [ACS-biotin] | – | – | – | – | > 0 | > 6 | – | – |
| C=C(CC[C@@H](C(=O)O)[C@H]1CC[C@@]2(C)C3=CC[C@H]4C(C)(C)[C@@H](O)CC[C@]4(C)C3=CC[C@]12C)C(C)C [DEA] | – | – | – | – | – | – | relatively weak | – |
| C=C(CC[C@@H](C)[C@H]1CC[C@H]2C3=C(C(=O)C[C@]12C)[C@@]1(C)CCC(=O)[C@@H](C)[C@@H]1C[C@@H]3O)C(C)C(=O)O (stereo partly shown) [Antcin C] | significantly upregulated | significantly reduced | significantly upregulated | significantly reduced | – | – | – | significantly activated |
| C=C(CC[C@@H](C)[C@H]1CC[C@H]2C3=C(C(=O)C[C@]12C)[C@@]1(C)CC[C@@H](O)[C@](C)(O)[C@@H]1C[C@@H]3O[C@@H]1OC(CO)[C@@H](O)[C@H](O)C1O)C(C)C(=O)O (stereo partly shown) [AK-GLU, Antcin K-7-O-glucoside] | significantly upregulated | significantly reduced | – | significantly reduced | – | – | – | significantly activated |
